Experimental data from patent publication US12331068B2, “Compositions and methods for inhibiting CD73” (Peloton Therapeutics, Inc., priority 2018, dated 2025).
Read-outs that look alike come from different tables or passages of the source.

Tests used:
[1] = target: T1, Human CD73 (Homo sapiens, UniProt P21589); assay: CD73 Enzyme Assay (EnzChek PNP/MESG kinetic readout of AMP hydrolysis); format: biochemical
T1 construct: purchased R&D Systems; host or cells: CHO cells
T1 sequence (P21589 27-549): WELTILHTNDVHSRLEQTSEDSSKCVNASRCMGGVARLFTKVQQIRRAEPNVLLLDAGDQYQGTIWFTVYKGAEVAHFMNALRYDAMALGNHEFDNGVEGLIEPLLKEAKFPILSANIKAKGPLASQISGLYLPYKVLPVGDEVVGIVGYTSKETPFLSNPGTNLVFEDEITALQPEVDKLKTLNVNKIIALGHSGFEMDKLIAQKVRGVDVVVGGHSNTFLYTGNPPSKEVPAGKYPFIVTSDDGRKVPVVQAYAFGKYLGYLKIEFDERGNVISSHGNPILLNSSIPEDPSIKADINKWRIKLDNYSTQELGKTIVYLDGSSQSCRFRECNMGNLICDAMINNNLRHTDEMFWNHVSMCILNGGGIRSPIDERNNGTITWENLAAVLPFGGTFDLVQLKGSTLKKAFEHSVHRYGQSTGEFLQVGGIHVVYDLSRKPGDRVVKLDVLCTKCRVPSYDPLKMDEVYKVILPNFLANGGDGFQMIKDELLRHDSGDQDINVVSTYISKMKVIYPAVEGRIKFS
In short: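 Compounds tested as 15-point, 3-fold dilution series (300 μM to 0.0002 μM) in DMSO. Kinetic absorbance at 360 nm read every minute for 10–20 min, initial velocity taken from the linear portion.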

[2] = target: T2, CD73 on U138 human neuroglioma cells (Homo sapiens, UniProt P21589); assay: CD73 Cell-Based Assay (inorganic phosphate from AMP, malachite green); details: AMP substrate, 2 hours at 37° C.
T2 construct: U138 cells were obtained from ATCC and cultured in DMEM with 10% FBS; host or cells: U138 human neuroglioma cells
T2 sequence (P21589 27-549): T1 sequence (P21589 27-549)
In short: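 U138 cells, seeded the day before at 2500 per well, were washed and given AMP substrate (200 μM in the added mixture, before dilution into the buffer) together with compound. After 2 h at 37 °C in 5% CO2, inorganic phosphate in the supernatant was measured with malachite green.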

[3] = 0.25 nM hCD73, 25 μM AMP, read-out: CD73 Enzyme Assay IC50
[4] = read-out: CD73 Cell-Based assay IC50

Compound | IC50 [1, 3] [nM] | IC50 [2, 4] [nM] | IC50 ([2]; read-out: IC50) [nM] | IC50 [1] [nM]
C[C@H](Nc1c(C#N)c(Cl)nc2c1ccn2[C@@H]1O[C@H](COP(=O)(O)CP(=O)(O)O)[C@@H](O)[C@H]1O)c1ccc(F)cc1 [Compound 35] | < 10 | < 10 |  | 
N#Cc1c(Cl)nc2c(ccn2[C@@H]2O[C@H](COCP(=O)(O)O)[C@@H](O)[C@H]2O)c1N1CC2CCCC2C1 (some centres unmarked) [Compound 11] | < 10 | < 10 |  | 
C[C@H](Nc1c(C#N)c(Cl)nc2c1cnn2[C@@H]1O[C@H](CS(=O)(=O)CP(=O)(O)O)[C@@H](O)[C@H]1O)c1ccccc1F [Compound 199] | < 10 | < 10 |  | 
C[C@@H](Nc1c(C#N)c(Cl)nc2c1cnn2[C@@H]1O[C@H](CS(=O)(=O)CP(=O)(O)O)[C@@H](O)[C@H]1O)c1ccc(C#N)cc1 [Compound 192] | 10 to 100 | 10 to 100 |  | 
N#Cc1c(Cl)nc2c(ccn2[C@@H]2O[C@H](CS(=O)(=O)CP(=O)(O)O)[C@@H](O)[C@H]2O)c1N[C@H]1C[C@@H](F)C1 [Compound 149] | < 10 | < 10 |  | 
N#Cc1c(Cl)nc2c(cnn2[C@@H]2O[C@H](COCP(=O)(O)O)[C@@H](O)[C@H]2O)c1N1CC2CC2C1 (some centres unmarked) [Compound 71] | < 10 | < 10 |  | 
N#Cc1c(Cl)nc2c(ccn2[C@@H]2O[C@H](CO[C@H](CO)P(=O)(O)O)[C@@H](O)[C@H]2O)c1N1CC2CCCC2C1 (stereo partly drawn) [Compound 50, ((1S)-1-(((2R,3S,4R,5R)-5-(6-chloro-5-cyano-4-(hexahydrocyclopenta[c]pyrrol-2 (1H)-yl)-1H-pyrrolo[2,3-b]pyridin-1-yl)-3,4-dihydroxytetrahydrofuran-2-yl)methoxy)-2-hydroxyethyl)phosphonic acid] | < 10 | < 10 |  | 
N#Cc1c(Cl)nc2c(ccn2[C@@H]2O[C@H](COCP(=O)(O)O)[C@@H](O)[C@H]2O)c1N1CC[C@@H](F)C1 [Compound 66] | < 10 | < 10 |  | 
N#Cc1nc2c(ccn2[C@@H]2O[C@H](COCP(=O)(O)O)[C@@H](O)[C@H]2O)c(N2CCC(F)(F)C2)c1C#N [Compound 105] | < 10 | < 10 |  | 
N#Cc1nc2c(ccn2[C@@H]2O[C@H](CS(=O)(=O)CP(=O)(O)O)[C@@H](O)[C@H]2O)c(NC2CCC(F)(F)CC2)c1Cl [Compound 137] | < 10 | < 10 |  | 
N#Cc1c(Cl)nc2c(ncn2[C@@H]2O[C@H](COCP(=O)(O)O)[C@@H](O)[C@H]2O)c1N1CC(F)(F)C1 [Compound 82] | < 10 | < 10 |  | 
N#Cc1c(Cl)nc2c(ncn2[C@@H]2O[C@H](COP(=O)(O)CP(=O)(O)O)[C@@H](O)[C@@H]2F)c1N1CCC(F)(F)C1 [Compound 97] | < 10 | < 10 |  | 
N#Cc1c(Cl)nc2c(ccn2[C@@H]2O[C@H](COP(=O)(O)CP(=O)(O)O)[C@@H](O)[C@H]2O)c1NC1CCCC1 [Compound 3, (((((2R,3S,4R,5R)-5-(6-chloro-5-cyano-4-(cyclopentylamino)-1H-pyrrolo[2,3-b]pyridin-1-yl)-3,4-dihydroxytetrahydrofuran-2-yl)methoxy)(hydroxy)phosphoryl)methyl)phosphonic acid] | < 10 | < 10 |  | 
N#Cc1c(Cl)nc2c(ccn2[C@@H]2O[C@H](COP(=O)(O)CP(=O)(O)O)[C@@H](O)[C@H]2O)c1NC1CC(F)(F)C1 [Compound 47] | < 10 | < 10 |  | 
N#Cc1c(Cl)nc2c(cnn2[C@@H]2O[C@H](COCP(=O)(O)O)[C@@H](O)[C@H]2O)c1N1C[C@@H](F)[C@H](F)C1 [Compound 80] | < 10 | < 10 |  | 
N#Cc1c(Cl)nc2c(ncn2[C@@H]2O[C@H](CS(=O)(=O)CP(=O)(O)O)[C@@H](O)[C@H]2O)c1NC1CC2CC2C1 (some centres unmarked) [Compound 127] | < 10 | < 10 |  | 
C[C@H](Nc1c(C#N)c(Cl)nc2c1ncn2[C@@H]1O[C@H](COP(=O)(O)CP(=O)(O)O)[C@@H](O)[C@H]1O)c1ccc(F)cc1 [Compound 215, (((((2R,3S,4R,5R)-5-(5-chloro-6-cyano-7-(((S)-1-(4-fluorophenyl)ethyl)amino)-3H-imidazo[4,5-b]pyridin-3-yl)-3,4-dihydroxytetrahydrofuran-2-yl)methoxy)(hydroxy)phosphoryl)methyl)phosphonic acid] |  | < 10 |  | < 10
N#Cc1c(Cl)nc2c(ccn2[C@@H]2O[C@H](COCP(=O)(O)O)[C@@H](O)[C@H]2O)c1NC1CC2(CCC2)C1 [Compound 155] | < 10 | < 10 |  | 
N#Cc1c(Cl)nc2c(ccn2[C@@H]2O[C@H](CS(=O)(=O)CP(=O)(O)O)[C@@H](O)[C@H]2O)c1NC1CC2(CC2)C1 [Compound 159] | < 10 | < 10 |  | 
N#Cc1c(Cl)nc2c(c(F)cn2[C@@H]2O[C@H](CS(=O)(=O)CP(=O)(O)O)[C@@H](O)[C@H]2O)c1NC1CC(F)(F)C1 [Compound 162] | < 10 | < 10 |  | 

Continued, in another order:

IC50 [1, 3] [nM] | IC50 [2, 4] [nM] | IC50 ([2]; read-out: IC50) [nM] | Compound | IC50 [1] [nM]
< 10 | < 10 |  | N#Cc1c(Cl)nc2c(ncn2[C@@H]2O[C@H](COCP(=O)(O)O)[C@@H](O)[C@H]2O)c1NC1CCCC1 [Compound 55, ((((2R,3S,4R,5R)-5-(5-chloro-6-cyano-7-(cyclopentylamino)-3H-imidazo[4,5-b]pyridin-3-yl)-3,4-dihydroxytetrahydrofuran-2-yl)methoxy)methyl)phosphonic acid] | 
< 10 | < 10 |  | C[C@@H](Nc1c(C#N)c(Cl)nc2c1ccn2[C@@H]1O[C@H](CS(=O)(=O)CP(=O)(O)O)[C@@H](O)[C@H]1O)c1ccc(C#N)cc1 [Compound 178] | 
< 10 | < 10 |  | N#Cc1c(Cl)nc2c(cnn2[C@@H]2O[C@H](CS(=O)(=O)CP(=O)(O)O)[C@@H](O)[C@H]2O)c1NC1CC(F)(F)C1 [Compound 129] | 
< 10 | < 10 |  | N#Cc1nc2c(ccn2[C@@H]2O[C@H](CS(=O)(=O)CP(=O)(O)O)[C@@H](O)[C@H]2O)c(NC2CC3(CC3)C2)c1Cl [Compound 221] | 
< 10 | < 10 |  | C[C@@H](Nc1c(C#N)c(Cl)nc2c1ncn2[C@@H]1O[C@H](COP(=O)(O)CP(=O)(O)O)[C@@H](O)[C@H]1O)c1ccc(F)cn1 [Compound 225] | 
< 10 | < 10 |  | C[C@H](Nc1c(C#N)c(Cl)nc2c1ccn2[C@@H]1O[C@H](COP(=O)(O)CP(=O)(O)O)[C@@H](O)[C@@H]1F)c1ccc(C#N)cc1 [Compound 230] | 
10 to 100 | > 100 |  | N#Cc1c(Cl)nc2c(ccn2[C@@H]2O[C@H](CS(=O)(=O)CP(=O)(O)O)[C@@H](O)[C@@H]2F)c1N [Compound 173] | 
< 10 | < 10 |  | N#Cc1c(Cl)nc2c(cnn2[C@@H]2O[C@H](COCP(=O)(O)O)[C@@H](O)[C@H]2O)c1N1CC(F)(F)C1 [Compound 78] | 
< 10 | < 10 |  | N#Cc1c(Cl)nc2c(ccn2[C@@H]2O[C@H](CS(=O)(=O)CP(=O)(O)O)[C@@H](O)[C@H]2O)c1N1CC2CCCC2C1 (some centres unmarked) [Compound 21] | 
< 10 | < 10 | 1.4 | O=P(O)(O)CS(=O)(=O)C[C@H]1O[C@@H](n2ccc3c(NC4CCCC4)cc(Cl)nc32)[C@H](O)[C@@H]1O [Compound 323] | 
< 10 | < 10 |  | C[C@@H](Nc1c(C#N)c(Cl)nc2c1cnn2[C@@H]1O[C@H](CS(=O)(=O)CP(=O)(O)O)[C@@H](O)[C@H]1O)c1ccc(F)cc1 [Compound 191] | 
< 10 | < 10 |  | N#Cc1c(Cl)nc2c(ncn2[C@@H]2O[C@H](COCP(=O)(O)O)[C@@H](O)[C@H]2O)c1N1C[C@@H](F)[C@H](F)C1 [Compound 93] | 
< 10 | < 10 |  | N#Cc1c(Cl)nc2c(ccn2[C@@H]2O[C@H](CS(=O)(=O)CP(=O)(O)O)[C@@H](O)[C@H]2O)c1NC1CC2(CCC2)C1 [Compound 158] | 
10 to 100 | < 10 |  | N#Cc1c(Cl)nc2c(ncn2[C@@H]2O[C@H](CS(=O)(=O)CP(=O)(O)O)[C@@H](O)[C@H]2O)c1N[C@H]1C[C@H](F)C1 [Compound 136] | 
< 10 | < 10 |  | C[C@H](Nc1c(C#N)c(Cl)nc2c1ccn2[C@@H]1O[C@H](COP(=O)(O)CP(=O)(O)O)[C@@H](O)[C@@H]1F)c1ccc(F)cc1 [Compound 241] | 
< 10 | < 10 |  | N#Cc1c(Cl)nc2c(cnn2[C@@H]2O[C@H](COP(=O)(O)CP(=O)(O)O)[C@@H](O)[C@H]2O)c1N[C@H]1C[C@@H](F)C1 [Compound 321] | 
< 10 | < 10 |  | C[C@@H](Nc1c(C#N)c(Cl)nc2c1cnn2[C@@H]1O[C@H](CS(=O)(=O)CP(=O)(O)O)[C@@H](O)[C@H]1O)c1cccc(F)c1 [Compound 182] | 
< 10 | < 10 |  | N#Cc1c(Cl)nc2c(ncn2[C@@H]2O[C@H](COCP(=O)(O)O)[C@@H](O)[C@H]2O)c1N1CC2CC2C1 (some centres unmarked) [Compound 58] | 
